Experiments:
[1] = tested on: Escherichia coli expressing NDM-1 (CLB30005, CLB30016); format: cell-based; settings: with imipenem 1 μg/ml; 95% inhibition of bacterial growth
In short: (§1)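 Colonies from overnight 35 °C blood-agar cultures were suspended in saline, diluted 1:100 into 1.1× CAMHB and exposed to test compound with or without imipenem at 1 μg/ml. After 22–24 h at 35 °C, absorbance was read to find the concentration restoring imipenem susceptibility.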

[2] = tested on: Serratia marcescens expressing IMP-1 (CL5741); format: cell-based; settings: with imipenem 1 μg/ml; 95% inhibition of bacterial growth
In short: as §1

[3] = tested on: Klebsiella pneumoniae expressing VIM-1 (IHMA599644); format: cell-based; settings: with imipenem 1 μg/ml; 95% inhibition of bacterial growth
In short: as §1

[4] = tested on: P. aeruginosa expressing IMP-1, efflux− (MB9799); assay: Efflux: concentration of MBL inhibitor which restores susceptibility to imipenem; format: cell-based, Pseudomonas aeruginosa; settings: imipenem at 2 μg/mL, in the presence of a class A, C, D serine β-lactamase inhibitor closely related to relebactam
Source text: (§2) The strain background is Pseudomonas aeruginosa PAO1.

[5] = tested on: P. aeruginosa expressing IMP-1, efflux+ (MB9798); format: cell-based, Pseudomonas aeruginosa; settings: for P. aeruginosa expressing IMP-1, efflux+ (MB9798) MITC95: imipenem at 2 μg/mL, in the presence of a class A, C, D serine β-lactamase inhibitor closely related to relebactam; for Efflux ratio: ratio MITC95 PA_9798/MITC95 PA_9799
Source text: as §2

[6] = biological target: VIM-1 (Pseudomonas aeruginosa (strain ATCC 15692 / DSM 22644 / CIP 104116 / JCM 14847 / LMG 12228 / 1C / PRS 101 / PAO1), UniProt A0A0F7KYQ8); assay: biochemical; settings: CCF2-FA substrate, 2 hours at 25° C
In short: (§3)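 Fluorescence assay, CCF2-FA substrate (cephalosporin core linking 7-hydroxycoumarin to fluorescein); inhibitor + MBL + substrate, 2 h, 25° C. IC50 by 4-parameter fit, semi-log plot.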

[7] = biological target: NDM-1 (Klebsiella pneumoniae, UniProt C7C422); assay: biochemical; format: biochemical; settings: CCF2-FA substrate, 2 hours at 25° C; read-out: NDM-1 IC50
NDM-1, sequence (C7C422 whole entry, looked up, species assumed): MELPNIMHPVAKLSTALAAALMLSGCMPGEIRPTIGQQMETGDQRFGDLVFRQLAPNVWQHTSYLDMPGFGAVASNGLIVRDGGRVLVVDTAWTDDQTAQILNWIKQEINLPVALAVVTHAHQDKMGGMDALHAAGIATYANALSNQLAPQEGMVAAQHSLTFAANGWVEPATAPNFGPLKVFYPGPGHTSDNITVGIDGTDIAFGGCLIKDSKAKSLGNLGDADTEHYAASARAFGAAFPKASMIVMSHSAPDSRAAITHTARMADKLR
In short: as §3

[8] = biological target: IMP-1 (Serratia marcescens, UniProt P52699); assay: biochemical; format: biochemical; settings: CCF2-FA substrate, 2 hours at 25° C; read-out: IMP-1 IC50
IMP-1, sequence (P52699 whole entry, looked up, species assumed): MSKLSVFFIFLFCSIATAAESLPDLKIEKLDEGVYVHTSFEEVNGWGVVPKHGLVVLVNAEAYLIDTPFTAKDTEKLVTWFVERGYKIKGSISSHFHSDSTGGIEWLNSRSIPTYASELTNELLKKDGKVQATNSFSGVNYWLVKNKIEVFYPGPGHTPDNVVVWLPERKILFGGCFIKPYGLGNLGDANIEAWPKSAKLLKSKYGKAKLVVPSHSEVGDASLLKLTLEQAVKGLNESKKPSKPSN
In short: as §3

SMILES | Escherichia coli expressing NDM-1 (CLB30016) MITC95 [1] | Serratia marcescens expressing IMP-1 (CL5741) MITC95 [2] | Klebsiella pneumoniae expressing VIM-1 (IHMA599644) MITC95 [3] | P. aeruginosa expressing IMP-1, efflux− (MB9799) MITC95 [4] | P. aeruginosa expressing IMP-1, efflux+ (MB9798) MITC95 [5] | Efflux ratio [5] | IC50 [6] | IC50 [7] | IC50 [8]
COc1cc(-c2ccc(S(=O)(=O)CCN)c(S(N)(=O)=O)c2-c2nnn[nH]2)cnc1N.O=C(O)C(F)(F)F [Example 169, 2-((4-(6-amino-5-methoxypyridin-3-yl)-2-sulfamoyl-3-(1H-tetrazol-5-yl)phenyl)sulfonyl)ethanaminium 2,2,2-trifluoroacetate] | 0.7813 µM | 3.125 µM | 6.25 µM | 1.563 µM | 25 µM | 15.99 | 1030 pM | 6000 pM | 5270 pM
Cc1nc(N)ccc1-c1ccc(S(=O)(=O)CCN)c(S(N)(=O)=O)c1-c1nnn[nH]1.O=C(O)C(F)(F)F [Example 170, 2-((4-(6-amino-2-methylpyridin-3-yl)-2-sulfamoyl-3-(1H-tetrazol-5-yl)phenyl)sulfonyl)ethanaminium 2,2,2-trifluoroacetate] | 0.3906 µM | 0.7813 µM | 3.125 µM | 1.563 µM | 6.25 µM | 4.00 | 1010 pM | 3480 pM | 2860 pM
NCCS(=O)(=O)c1ccc(-c2cccc3cnccc23)c(-c2nnn[nH]2)c1S(N)(=O)=O.O=C(O)C(F)(F)F [Example 171] | 1.563 µM | 3.125 µM | 6.25 µM | 1.563 µM | 12.5 µM | 8.00 | 272 pM | 306 pM | 1020 pM
Cc1cc(-c2ccc(S(=O)(=O)CCN)c(S(N)(=O)=O)c2-c2nnn[nH]2)cnc1N.O=C(O)C(F)(F)F [Example 172, 2-((4-(6-amino-5-methylpyridin-3-yl)-2-sulfamoyl-3-(1H-tetrazol-5-yl)phenyl)sulfonyl)ethanaminium 2,2,2-trifluoroacetate] | 0.25 µM | 1.281 µM | 3.125 µM | 1.781 µM | 6.25 µM | 3.51 | 193 pM | 2980 pM | 4900 pM
NCCS(=O)(=O)c1ccc(-c2cccc3cn[nH]c23)c(-c2nnn[nH]2)c1S(N)(=O)=O.O=C(O)C(F)(F)F [Example 173, 2-((4-(1H-indazol-7-yl)-2-sulfamoyl-3-(1H-tetrazol-5-yl)phenyl)sulfonyl)ethanaminium 2,2,2-trifluoroacetate] | 0.25 µM | 0.8906 µM | 0.8906 µM | 0.4453 µM | 0.8906 µM | 2.00 | 264 pM | 338 pM | 160 pM
NCCS(=O)(=O)c1ccc(-c2ccc3scnc3c2)c(-c2nnn[nH]2)c1S(N)(=O)=O.O=C(O)C(F)(F)F [Example 174, 2-((4-(benzo[d]thiazol-5-yl)-2-sulfamoyl-3 (1H-tetrazol-5-yl)phenyl)sulfonyl)ethanaminium 2,2,2-trifluoroacetate] | 0.3906 µM | 0.7813 µM | 1.563 µM | 0.3906 µM | 3.125 µM | 8.00 | 140 pM | 392 pM | 220 pM
Nc1nc2cccc(-c3ccc(S(=O)(=O)[C@H]4C[C@H](N)C4)c(S(N)(=O)=O)c3-c3nn[nH]n3)c2[nH]1 [Example 175, 3-(2-amino-3H-benzo[d]imidazol-4-yl)-6-((1r,3r)-3-aminocyclobutylsulfonyl)-2-(2H-tetrazol-5-yl)benzenesulfonamide] | 0.7813 µM | 1.563 µM | 1.563 µM | 0.7813 µM | 0.7813 µM | 1.00 | 478 pM | 149 pM | 2200 pM
Nc1nc2cccc(-c3ccc(S(=O)(=O)[C@H]4C[C@@H](N)C4)c(S(N)(=O)=O)c3-c3nn[nH]n3)c2[nH]1 [Example 176, 3-(2-amino-3H-benzo[d]imidazol-4-yl)-6-((1s, 3s)-3-aminocyclobutylsulfonyl)-2-(2H-tetrazol-5-yl)benzenesulfonamide] | 0.7813 µM | 0.7813 µM | 1.563 µM | 0.7813 µM | 0.7813 µM | 1.00 | 831 pM | 250 pM | 1090 pM
Nc1nc2cccc(-c3ccc(S(=O)(=O)[C@H]4CC[C@@H](N)CC4)c(S(N)(=O)=O)c3-c3nn[nH]n3)c2[nH]1 [Example 177, 3-(2-amino-3H-benzo[d]imidazol-4-yl)-6-((1s,4s)-4-aminocyclohexylsulfonyl)-2-(2H-tetrazol-5-yl)benzenesulfonamide] | 0.7813 µM | 0.7813 µM | 1.563 µM | 0.7813 µM | 0.7813 µM | 1.00 | 293 pM | 264 pM | 1350 pM
Nc1nc2cccc(-c3ccc(S(=O)(=O)[C@H]4CC[C@H](N)CC4)c(S(N)(=O)=O)c3-c3nn[nH]n3)c2[nH]1 [Example 178, 3-(2-amino-3H-benzo[d]imidazol-4-yl)-6-((1r,4r)-4-aminocyclohexylsulfonyl)-2-(2H-tetrazol-5-yl)benzenesulfonamide] | 0.3906 µM | 0.7813 µM | 1.563 µM | 0.7813 µM | 0.7813 µM | 1.00 | 660 pM | 275 pM | 990 pM
Nc1nc2c(-c3ccc(S(=O)(=O)[C@H]4C[C@H](N)C4)c(S(N)(=O)=O)c3-c3nn[nH]n3)cccc2s1 [Example 179] | 0.7813 µM | 1.563 µM | 1.563 µM | 1.563 µM | 0.7813 µM | 0.50 | 322 pM | 106 pM | 135 pM
Nc1nc2c(-c3ccc(S(=O)(=O)[C@H]4C[C@@H](N)C4)c(S(N)(=O)=O)c3-c3nn[nH]n3)cccc2s1 [Example 180, 3-(2-aminobenzo[d]thiazol-4-yl)-6-((1s,3s)-3-aminocyclobutylsulfonyl)-2-(2H-tetrazol-5-yl)benzenesulfonamide] | 3.125 µM | 1.563 µM | 3.125 µM | 0.7813 µM | 0.7813 µM | 1.00 | 196 pM | 83.2 pM | 260 pM
Nc1nc2cccc(-c3ccc(S(=O)(=O)[C@@H]4CCNC4)c(S(N)(=O)=O)c3-c3nn[nH]n3)c2[nH]1 [Example 181, 3-(2-amino-3H-benzo[d]imidazol-4-yl)-6-((R)-pyrrolidin-3-ylsulfonyl)-2-(2H-tetrazol-5-yl)benzenesulfonamide] | 0.3203 µM | 0.6875 µM | 0.8542 µM | 0.6875 µM | 0.6875 µM | 1.00 | 420 pM | 149 pM | 807 pM
